Square brackets hold non-standard residues; d marks the D form. Ends that are not written are not given here. Peptide text beside a SMILES is read from it. pGlu = O=C1CC[C@@H](C(=O)O)N1
Columns and labels:
[1] = molecular target: ArGnRHR (Asterias rubens, UniProt A0A1B0YGS0); assay: Bioluminescence (Ca2+) receptor activation assay, ArGnRHR in CHO-K1 cells with aequorin and Gα16; assay type: cell-based; settings: for activation of ArGnRHR (bioluminescence response, in words) / activation of ArGnRHR by other GnRH/CRZ-type or starfish neuropeptides (in words): CHO-K1/aequorin/Gα16 cells; for activation of ArGnRHR (bioluminescence response, in words): concentrations 10^−4 M to 10^−14 M, peptide 2 over the same concentration range as peptide 1; for activation of ArGnRHR by other GnRH/CRZ-type or starfish neuropeptides (in words): 10 μM, Supplementary Figure S8
Text: (§1) ArGnRHR and ArCRZR were cloned as described previously[23] and the positions of the primers used are indicated in Supplementary Figures S1 and S2. Next, the ORF of ArGnRHR was amplified using the oligos 5′-aagcttCACCATGGCGACTACATC-3′ and 5′-ctcgagTTATACACATTTCTCAG-3′ and subcloned into the eukaryotic expression vector pcDNA 3.1+ (Invitrogen) that was cut with HindIII and XhoI; The ORF of ArCRZR was amplified using the oligos 5′- gatatcCACCATGAGTGTTCAAT-3′ and 5′-tctagaTCAGGTTGTTGTTGTGA-3′ and subcloned into pcDNA 3.1+ that was cut with EcoRV and XbaI. A partial Kozak translation initiation sequence (CACC) was also introduced in the upstream primer. Chinese hamster ovary (CHO)-K1 cells stably overexpressing the human Gα16 protein and mitochondrial targeted apo-aequorin were used as a heterologous expression system to functionally characterize the receptors. Cells were cultured, transfected and a bioluminescence assay performed as described previously. The A. rubens neuropeptides pQIHYKNPGWGPG-NH2 and HNTFTMGGQNRWKAG-NH2 were custom synthesized by PPR Ltd (Fareham, UK) and were tested as candidate ligands for ArGnRHR and ArCRZR at concentrations ranging from 10^−4 M to 10^−14 M. Ca^2+ responses were normalized to the total Ca^2+ response monitored after addition of Triton X-100 (0.1%). Dose–response data were determined as a % of the highest response (100% activation). EC50 values were calculated from dose–response curves based on at least three independent transfections (Prism 6.0). Other GnRH/CRZ-type neuropeptides (Drosophila AKH and Drosophila AKH) and other starfish neuropeptides (NGFFYamide, SALMFamide-1 and SALMFamide-2[16][24]) were also tested (at 10 μM) to assess the specificity of receptor activation.

[2] = molecular target: ArCRZR (Asterias rubens, UniProt A0A1B0YGT7); assay: Bioluminescence (Ca2+) receptor activation assay, ArCRZR in CHO-K1 cells with aequorin and Gα16; assay type: cell-based; settings: for activation of ArCRZR by other GnRH/CRZ-type or starfish neuropeptides (in words): 10 μM, Supplementary Figure S8
Text: as §1

[3] = system: cells transfected with an empty vector; assay: Bioluminescence assay, cells transfected with an empty vector (control); assay type: cell-based, Chinese hamster; settings: data not shown
Text: as §1, with “Chinese hamster ovary (CHO)-K1 cells stably overexpressing the human Gα16 protein and mitochondrial targeted apo-aequorin were used as a heterologous expression system to functionally characterize the receptors. Cells were cultured, transfected and a bioluminescence assay performed as described previously.” left out, “Other GnRH/CRZ-type neuropeptides (Drosophila AKH and Drosophila AKH) and other starfish neuropeptides (NGFFYamide, SALMFamide-1 and SALMFamide-2[16][24]) were also tested (at 10 μM) to assess the specificity of receptor activation.” left out

[4] = system: GnRH-type receptors; settings: two GnRH-type receptors; ref [14]; cited from earlier work
Text: (§2) It is not known, however, if this predicted mature peptide actually exists in B. floridae. […] Thus, it remains to be established whether or not distinct GnRH-type and CRZ-type signalling pa ...

[5] = system: CRZ-type receptor; settings: one of two CRZ-type receptors; ref [14]; cited from earlier work
Text: as §2

ArGnRHR, sequence (A0A1B0YGS0 entry or part of it): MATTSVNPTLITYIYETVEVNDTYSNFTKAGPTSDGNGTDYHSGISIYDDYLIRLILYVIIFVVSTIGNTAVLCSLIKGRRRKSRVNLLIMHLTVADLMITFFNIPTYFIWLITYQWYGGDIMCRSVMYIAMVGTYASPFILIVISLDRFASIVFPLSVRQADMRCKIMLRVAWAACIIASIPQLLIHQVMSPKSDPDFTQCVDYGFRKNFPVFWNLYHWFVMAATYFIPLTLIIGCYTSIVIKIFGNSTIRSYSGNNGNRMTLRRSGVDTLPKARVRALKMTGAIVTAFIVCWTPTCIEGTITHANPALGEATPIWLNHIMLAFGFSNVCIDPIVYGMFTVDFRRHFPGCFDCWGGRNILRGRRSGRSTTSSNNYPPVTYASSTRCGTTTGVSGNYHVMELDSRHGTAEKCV
ArCRZR, sequence (A0A1B0YGT7 entry or part of it): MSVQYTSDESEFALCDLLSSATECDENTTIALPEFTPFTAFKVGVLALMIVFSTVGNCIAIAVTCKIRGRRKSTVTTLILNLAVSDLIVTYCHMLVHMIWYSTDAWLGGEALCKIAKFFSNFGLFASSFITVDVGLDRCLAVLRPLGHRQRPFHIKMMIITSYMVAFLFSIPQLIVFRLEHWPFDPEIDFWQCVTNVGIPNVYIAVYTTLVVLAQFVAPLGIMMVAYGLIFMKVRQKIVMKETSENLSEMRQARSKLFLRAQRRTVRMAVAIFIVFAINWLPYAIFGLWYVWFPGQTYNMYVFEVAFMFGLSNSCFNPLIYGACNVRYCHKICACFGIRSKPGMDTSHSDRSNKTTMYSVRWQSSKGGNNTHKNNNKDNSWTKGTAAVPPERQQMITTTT

CC[C@H](C)[C@H](NC(=O)[C@@H]1CCC(=O)N1)C(=O)N[C@@H](Cc1c[nH]cn1)C(=O)N[C@@H](Cc1ccc(O)cc1)C(=O)N[C@@H](CCCCN)C(=O)N[C@@H](CC(N)=O)C(=O)N1CCC[C@H]1C(=O)NCC(=O)N[C@@H](Cc1c[nH]c2ccccc12)C(=O)NCC(=O)N1CCC[C@H]1C(=O)NCC(N)=O [peptide 1] ([pGlu]IHYKNPGWGPG-NH2)
EC50 [1]: 0.603 nM | activation of ArGnRHR (bioluminescence response, in words) [1]: dose-dependent activation | activation of ArGnRHR (bioluminescence response, in words) ([1]; listed as Peptide 1): dose-dependent stimulation of a bioluminescence response | activation of ArGnRHR (bioluminescence response, in words) ([1]; listed as pQIHYKNPGWGPG-NH2): specifically activates an A. rubens GnRH-type receptor | activation of ArCRZR (bioluminescence response, in words) ([2]; CHO-K1/aequorin/Gα16 cells, concentrations 10^−4 M to 10^−14 M, peptide 1 over a similar concentration range as peptide 2): no effect | response of cells transfected with an empty vector (in words) [3]: Neither peptide 1 nor peptide 2 elicited any response

NGFFYamide
activation of ArGnRHR by other GnRH/CRZ-type or starfish neuropeptides (in words) [1]: Neither receptor was activated | activation of ArCRZR by other GnRH/CRZ-type or starfish neuropeptides (in words) ([2]; CHO-K1/aequorin/Gα16 cells): Neither receptor was activated

CSCC[C@H](NC(=O)[C@@H](NC(=O)[C@H](Cc1ccccc1)NC(=O)[C@@H](NC(=O)[C@H](CC(N)=O)NC(=O)[C@@H](N)Cc1c[nH]cn1)[C@@H](C)O)[C@@H](C)O)C(=O)NCC(=O)NCC(=O)N[C@@H](CCC(N)=O)C(=O)N[C@@H](CC(N)=O)C(=O)N[C@@H](CCCNC(=N)N)C(=O)N[C@@H](Cc1c[nH]c2ccccc12)C(=O)N[C@@H](CCCCN)C(=O)N[C@@H](C)C(=O)NCC(N)=O [peptide 2] (H-HNTFTMGGQNRWKAG-NH2)
EC50 [2]: 115 nM

pQILCARAFTYTHTW-NH2 [candidate neuropeptide in the cephalochordate Branchiostoma floridae]
activation of B. floridae GnRH-type receptors (in words) [4]: neither of two GnRH-type receptors | activation of B. floridae CRZ-type receptors (in words) [5]: activates one of two CRZ-type receptors

CRZ: other GnRH/CRZ-type peptide (Drosophila corazonin) (QTFQYSRGWTN; ends and bridges not checked; UniProt Q26377 20-30, looked up)
activation of ArGnRHR by other GnRH/CRZ-type or starfish neuropeptides (in words) [1]: Neither receptor was activated | activation of ArCRZR by other GnRH/CRZ-type or starfish neuropeptides (in words) ([2]; CHO-K1/aequorin/Gα16 cells): Neither receptor was activated

Drosophila AKH: other GnRH/CRZ-type peptide (Drosophila adipokinetic hormone) (QLTFSPDW; ends and bridges not checked; UniProt P61855 23-30, looked up)
activation of ArGnRHR by other GnRH/CRZ-type or starfish neuropeptides (in words) [1]: Neither receptor was activated | activation of ArCRZR by other GnRH/CRZ-type or starfish neuropeptides (in words) ([2]; CHO-K1/aequorin/Gα16 cells): Neither receptor was activated
